21 compounds from patent US11951094B2, “TLR2 modulator compounds, pharmaceutical compositions and uses thereof” (Axial Therapeutics, Inc., priority 2020, dated 2024) can be followed below.

Counter-ions that a name gives are not always drawn.

Chain of TLR2 (O60603 21-784): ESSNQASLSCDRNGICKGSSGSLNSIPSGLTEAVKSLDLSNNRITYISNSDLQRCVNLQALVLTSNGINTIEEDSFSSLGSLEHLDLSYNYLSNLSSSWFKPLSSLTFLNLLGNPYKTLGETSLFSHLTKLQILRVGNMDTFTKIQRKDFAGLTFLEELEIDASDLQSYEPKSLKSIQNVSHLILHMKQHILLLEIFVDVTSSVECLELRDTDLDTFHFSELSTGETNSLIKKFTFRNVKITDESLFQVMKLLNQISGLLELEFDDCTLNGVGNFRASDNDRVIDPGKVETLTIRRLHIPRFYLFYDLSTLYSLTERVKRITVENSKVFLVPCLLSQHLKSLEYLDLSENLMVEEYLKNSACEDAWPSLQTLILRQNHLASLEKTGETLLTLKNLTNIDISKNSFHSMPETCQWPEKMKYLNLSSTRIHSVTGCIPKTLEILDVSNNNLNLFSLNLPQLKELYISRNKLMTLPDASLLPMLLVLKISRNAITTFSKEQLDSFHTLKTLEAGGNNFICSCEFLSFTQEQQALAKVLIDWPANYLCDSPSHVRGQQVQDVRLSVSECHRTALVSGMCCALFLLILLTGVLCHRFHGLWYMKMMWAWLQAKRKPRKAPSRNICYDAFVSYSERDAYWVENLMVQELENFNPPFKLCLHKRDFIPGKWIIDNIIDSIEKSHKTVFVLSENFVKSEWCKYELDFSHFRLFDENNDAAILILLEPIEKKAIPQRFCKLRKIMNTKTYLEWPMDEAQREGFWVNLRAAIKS

The first test has as its target TLR2 (Homo sapiens, UniProt O60603). The test is described as follows: TLR2 agonist screening assay, HEK-Blue TLR2 reporter cell line (NF-kB-driven SEAP, absorbance at 600 nm). It is filed as cell-based. Details: host or cells: HEK-293 (HEK-Blue TLR2 reporter cell line). Particulars: HEK-Blue TLR2 reporter cells, agonist mode; average of all runs (Table 3). An outline of the steps:
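EC50 values come from 600 nm absorbance of SEAP-converted substrate after overnight agonist exposure. The reporter line was HEK-293 engineered with TLR2 and an NF-kB-SEAP construct, seeded at about 40,000 cells per well 16-24 h beforehand. Compounds were added at 1% final DMSO.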
The EC50 is the concentration needed to bring the measured effect to its halfway point. Turning to `CCCCCCCCCCCC(=O)N1CCN(C(=O)c2ccc(C(=O)N3C[C@@H](C(=O)N[C@H]4C[C@@H]4c4ccccc4)[C@H](C(=O)N[C@H]4C[C@@H]4c4ccccc4)C3)cc2)CC1C(=O)NCCCCCC` (stereo partly drawn) [Compound 057, (3S,4S)-1-(4-(4-dodecanoyl-3-(hexylcarbamoyl)piperazine-1-carbonyl)benzoyl)-N3,N4-bis((1S,2R)-2-phenylcyclopropyl)pyrrolidine-3,4-dicarboxamide], the EC50 lay within 51 to 350 nM.
The same measure, in the same setting: the value for `CCCCCCCNC(=O)C1CN(C(=O)c2ccc(C(=O)N3C[C@@H](C(=O)N[C@H]4C[C@@H]4c4ccccc4)[C@H](C(=O)N[C@H]4C[C@@H]4c4ccccc4)C3)cc2)CCN1C(=O)CCCCCCC` (stereo partly drawn) [Compound 058] was 51 to 350 nM; that for `CCCCCCCCCC(=O)N1CCN(C(=O)c2ccc(C(=O)N3C[C@@H](C(=O)N[C@H]4C[C@@H]4c4ccccc4)[C@H](C(=O)N[C@H]4C[C@@H]4c4ccccc4)C3)cc2)CC1C(=O)NCCCCCC` (stereo partly drawn) [Compound 064, (3S,4S)-1-(4-(4-decanoyl-3-(hexylcarbamoyl)piperazine-1-carbonyl)benzoyl)-N3,N4-bis((1S,2R)-2-phenylcyclopropyl)pyrrolidine-3,4-dicarboxamide] was 0.1 to 50 nM.
For `CCCCCCCCNC(=O)C1CN(C(=O)c2ccc(C(=O)N3C[C@@H](C(=O)N[C@H]4C[C@@H]4c4ccccc4)[C@H](C(=O)N[C@H]4C[C@@H]4c4ccccc4)C3)cc2)CCN1C(=O)CCCCCCC` (stereo partly drawn) [Compound 065, (3S,4S)-1-(4-(4-octanoyl-3-(octylcarbamoyl)piperazine-1-carbonyl)benzoyl)-N3,N4-bis((1S,2R)-2-phenylcyclopropyl)pyrrolidine-3,4-dicarboxamide], the EC50 is 51 to 350 nM.
The compound `CCCCCCCCCCNC(=O)C1CN(C(=O)c2ccc(C(=O)N3C[C@@H](C(=O)N[C@H]4C[C@@H]4c4ccccc4)[C@H](C(=O)N[C@H]4C[C@@H]4c4ccccc4)C3)cc2)CCN1C(=O)CCCCCCC` (stereo partly drawn) [Compound 066, (3S,4S)-1-(4-(3-(decylcarbamoyl)-4-octanoylpiperazine-1-carbonyl)benzoyl)-N3,N4-bis((1S,2R)-2-phenylcyclopropyl)pyrrolidine-3,4-dicarboxamide] had a half-maximal effective concentration (EC50) of 51 to 350 nM.
`O=C(N[C@H]1C[C@@H]1c1ccccc1)[C@@H]1CN(C(=O)c2cnc(C(=O)N3C[C@@H](C(=O)N[C@H]4C[C@@H]4c4ccccc4)[C@H](C(=O)N[C@H]4C[C@@H]4c4ccccc4)C3)cn2)C[C@H]1C(=O)N[C@H]1C[C@@H]1c1ccccc1` [Compound 067] had a concentration giving a half-maximal response (EC50) above 1000 nM.
Turning to `O=C(N[C@H]1C[C@@H]1c1ccccc1)[C@@H]1CN(C(=O)C23CC(C(=O)N4C[C@@H](C(=O)N[C@H]5C[C@@H]5c5ccccc5)[C@H](C(=O)N[C@H]5C[C@@H]5c5ccccc5)C4)(C2)C3)C[C@H]1C(=O)N[C@H]1C[C@@H]1c1ccccc1` [Compound 068], the concentration for a half-maximal effect (EC50) is above 1000 nM.
The compound `CCCCCCCCCCCCCCNC(=O)[C@@H]1CN(C(=O)c2ccc(C(=O)N3C[C@@H](C(=O)N[C@H]4C[C@@H]4c4ccccc4)[C@H](C(=O)N[C@H]4C[C@@H]4c4ccccc4)C3)cc2)CCN1C` [Compound 069, (3S,4S)-1-(4-((S)-4-methyl-3-(tetradecylcarbamoyl)piperazine-1-carbonyl)benzoyl)-N3,N4-bis ((1S,2R)-2-phenylcyclopropyl) pyrrolidine-3,4-dicarboxamide formate] yielded an EC50 of 351 to 1000 nM.
Compound `CCCCCCNC(=O)[C@@H](CNC(=O)c1ccc(C(=O)N2C[C@@H](C(=O)N[C@H]3C[C@@H]3c3ccccc3)[C@H](C(=O)N[C@H]3C[C@@H]3c3ccccc3)C2)cc1)NC(=O)CCCCCC` [Compound 070, (3S,4S)-1-(4-(((R)-2-heptanamido-3-(hexylamino)-3-oxopropyl)carbamoyl)benzoyl)-N3,N4-bis((1S,2R)-2-phenylcyclopropyl)pyrrolidine-3,4-dicarboxamide] displayed an EC50 above 1000 nM.
For `O=C(N[C@H]1C[C@@H]1c1ccccc1)[C@@H]1CN(C(=O)c2cnc(C(=O)N3C[C@@H](C(=O)N[C@H]4C[C@@H]4c4ccccc4)[C@H](C(=O)N[C@H]4C[C@@H]4c4ccccc4)C3)nc2)C[C@H]1C(=O)N[C@H]1C[C@@H]1c1ccccc1` [Compound 071, (3S,3'S,4S,4'S)-1,1′-(pyrimidine-2,5-dicarbonyl)bis(N3,N4-bis((1S,2R)-2-phenylcyclopropyl)pyrrolidine-3,4-dicarboxamide)], the EC50 lay within 51 to 350 nM.
In turn, `CCCCCCCC(=O)N1CC(=O)N(Cc2ccc(C(=O)N3C[C@@H](C(=O)N[C@H]4C[C@@H]4c4ccccc4)[C@H](C(=O)N[C@H]4C[C@@H]4c4ccccc4)C3)cc2)C[C@@H]1C(=O)NCCCCCC` [Compound 074, (3S,4S)-1-(4-(((R)-5-(hexylcarbamoyl)-4-octanoyl-2-oxopiperazin-1-yl)methyl)benzoyl)-N3,N4-bis((1S,2R)-2-phenylcyclopropyl)pyrrolidine-3,4-dicarboxamide] came in with an EC50 of 51 to 350 nM.

Staying with this test, now noted: HEK-Blue TLR2 reporter cells, agonist mode; average of all runs (Table 4).
In the case of `CCCCCCCCCCCCCCC(=O)N[C@H]1CN(C(=O)c2ccc(C(=O)N3C[C@@H](C(=O)N[C@H]4C[C@@H]4c4ccccc4)[C@H](C(=O)N[C@H]4C[C@@H]4c4ccccc4)C3)cc2)C[C@@H]1O` [Compound 078, (3S,4S)-1-(4-((3S,4S)-3-hydroxy-4-pentadecanamidopyrrolidine-1-carbonyl)benzoyl)-N3,N4-bis((1S,2R)-2-phenylcyclopropyl)pyrrolidine-3,4-dicarboxamide], the 50% effective concentration (EC50) was in the range of 51 to 350 nM.
Take `CCCCCCCCCCCCCNC(=O)N[C@@H]1CCN(C(=O)c2ccc(C(=O)N3C[C@@H](C(=O)N[C@H]4C[C@@H]4c4ccccc4)[C@H](C(=O)N[C@H]4C[C@@H]4c4ccccc4)C3)cc2)C1` [Compound 079, (3S,4S)—N3,N4-bis((1S,2R)-2-phenylcyclopropyl)-1-(4-((R)-3-(3-tridecylureido)pyrrolidine-1-carbonyl)benzoyl)pyrrolidine-3,4-dicarboxamide]: the EC50 was 0.1 to 50 nM.
In the case of `CCCCCCCO[C@H]1CN(C(=O)c2ccc(C(=O)N3C[C@@H](C(=O)N[C@H]4C[C@@H]4c4ccccc4)[C@H](C(=O)N[C@H]4C[C@@H]4c4ccccc4)C3)cc2)C[C@@H]1NC(=O)CCCCCC` [Compound 080, (3S,4S)-1-(4-((3S,4S)-3-heptanamido-4-(heptyloxy)pyrrolidine-1-carbonyl)benzoyl)-N3,N4-bis((1S,2R)-2-phenylcyclopropyl)pyrrolidine-3,4-dicarboxamide], the EC50 is 51 to 350 nM.
Still for that read-out and setting: the value for `O=C(N[C@H]1C[C@@H]1c1ccccc1)[C@@H]1CN(C(=O)C23CCC(C(=O)N4C[C@@H](C(=O)N[C@H]5C[C@@H]5c5ccccc5)[C@H](C(=O)N[C@H]5C[C@@H]5c5ccccc5)C4)(CC2)C3)C[C@H]1C(=O)N[C@H]1C[C@@H]1c1ccccc1` [Compound 081, (3S,3'S,4S,4'S)-1,1′-(bicyclo [2.2.1]heptane-1,4-dicarbonyl) bis (N3,N4-bis((1S,2R)-2-phenylcyclopropyl)pyrrolidine-3,4-dicarboxamide)] was 351 to 1000 nM; that for `CCCCCCCCCCCCCCCN[C@@H]1CCN(C(=O)c2ccc(C(=O)N3C[C@@H](C(=O)N[C@H]4C[C@@H]4c4ccccc4)[C@H](C(=O)N[C@H]4C[C@@H]4c4ccccc4)C3)cc2)C1` [Compound 082, (3S,4S)-1-(4-((R)-3-(pentadecylamino)pyrrolidine-1-carbonyl)benzoyl)-N3,N4-bis((1S,2R)-2-phenylcyclopropyl)pyrrolidine-3,4-dicarboxamide] was above 1000 nM; that for `CCCCCCCCCCCCCCS(=O)(=O)N[C@@H]1CCN(C(=O)c2ccc(C(=O)N3C[C@@H](C(=O)N[C@H]4C[C@@H]4c4ccccc4)[C@H](C(=O)N[C@H]4C[C@@H]4c4ccccc4)C3)cc2)C1` [Compound 083, (3S,4S)—N3,N4-bis((1S,2R)-2-phenylcyclopropyl)-1-(4-((R)-3-(tetradecylsulfonamido)pyrrolidine-1-carbonyl)benzoyl)pyrrolidine-3,4-dicarboxamide] was above 1000 nM.
On the same count and under the same terms, as for `CCCCCCCCCCCCCCNC(=O)[C@H]1CN(Cc2ccc(C(=O)N3C[C@@H](C(=O)N[C@H]4C[C@@H]4c4ccccc4)[C@H](C(=O)N[C@H]4C[C@@H]4c4ccccc4)C3)cc2)CCN1C` [Compound 084, (3S,4S)-1-(4-(((R)-4-methyl-3-(tetradecylcarbamoyl)piperazin-1-yl)methyl)benzoyl)-N3,N4-bis((1S,2R)-2-phenylcyclopropyl) pyrrolidine-3,4-dicarboxamide], the figure is above 1000 nM; as for `CCCCCCCCCCCCCCCN[C@H]1CN(C(=O)c2ccc(C(=O)N3C[C@@H](C(=O)N[C@H]4C[C@@H]4c4ccccc4)[C@H](C(=O)N[C@H]4C[C@@H]4c4ccccc4)C3)cc2)C[C@@H]1O` [Compound 087, (3S,4S)-1-(4-((3S,4S)-3-hydroxy-4-(pentadecylamino)pyrrolidine-1-carbonyl)benzoyl)-N3,N4-bis((1S,2R)-2-phenylcyclopropyl)pyrrolidine-3,4-dicarboxamide], above 1000 nM; as for `CCCCCCCCCCCCCCNC(=O)[C@@H]1CN(Cc2ccc(C(=O)N3C[C@@H](C(=O)N[C@H]4C[C@@H]4c4ccccc4)[C@H](C(=O)N[C@H]4C[C@@H]4c4ccccc4)C3)cc2)CCN1C` [Compound 088, (3S,4S)-1-(4-(((S)-4-methyl-3-(tetradecylcarbamoyl)piperazin-1-yl)methyl)benzoyl)-N3,N4-bis((1S,2R)-2-phenylcyclopropyl) pyrrolidine-3,4-dicarboxamide], above 1000 nM.
On the same count and under the same terms, the value for `CCCCCCCN[C@H]1CN(C(=O)c2ccc(C(=O)N3C[C@@H](C(=O)N[C@H]4C[C@@H]4c4ccccc4)[C@H](C(=O)N[C@H]4C[C@@H]4c4ccccc4)C3)cc2)C[C@@H]1OCCCCCCC` [Compound 089, (3S,4S)-1-(4-((3S,4S)-3-(heptylamino)-4-(heptyloxy)pyrrolidine-1-carbonyl)benzoyl)-N3,N4-bis((1S,2R)-2-phenylcyclopropyl)pyrrolidine-3,4-dicarboxamide] was above 1000 nM.
